Where a SMILES comes first, the peptide text is derived from it. Where no end group is shown, it is not given here. [ ]: non-standard residue; d: D form. pS = N[C@@H](COP(=O)(O)O)C(=O)O
Key:
[1] = target: T1, Importin-α(ΔIBB) (a.a. 70–524) (Mus musculus, UniProt P52293); experiment: Isothermal titration calorimetry (ITC), Importin-α(ΔIBB); assay type: binding; settings: 200 mM NaCl
T1 construct: Importin-α lacking the IBB domain (a.a. 70–524; hereafter Importin-α(ΔIBB)); GST (N); made in house; host or cells: Escherichia coli Rosetta
Description: Phosphorylation of GM130 on Ser-25 is correlated with p115 dissociation, with this process appearing to be specific to mitosis and being responsible for reduction of p115-mediated vesicle fusion to Golgi membranes[5]–[7],[9],[10]. The N-terminal region of GM130 and the p115 C-terminus interact[11],[12], so we purified recombinant proteins containing these two regions and then assessed their binding affinity by isothermal titration calorimetry (ITC). The wild type GM130 N-terminal region (a.a. 1-85; hereafter GM130-WT) directly bound p115 (a.a. 780–930; hereafter p115-CTD) (Fig. 1a). Furthermore, we examined if GM130 phosphorylation reduces the binding affinity for p115. […] We found in competition-binding assays that p115-CTD pulldown by GST-GM130-S25D was reduced when we added increasing amounts of Importin-α lacking the IBB domain (a.a. 70–524; hereafter Importin-α(ΔIBB)) (Fig. 1c). […] Therefore, we propose that binding of Importin-α to GM130 could be primarily responsbile for preventing interaction between p115 and GM130 during mitosis.
Homo sapiens GM130 (a.a. 1–48), GM130 (a.a. 1–85), and Importin-β were amplified by PCR and ligated into pGEX-6P-1 (GE Healthcare). […]
Binding affinities of different GM130 proteins to Importin-α and Importin-β were measured by ITC (MicroCal iTC200). […] Protein concentrations were determined spectrophotometrically with respective extinction coefficients. […]

[2] = target: T2, Importin-β (Homo sapiens, UniProt Q14974); experiment: Isothermal titration calorimetry (ITC), Importin-β; assay type: binding; settings: for ITC profile (exothermic / endothermic): 25 °C
T2 construct: GST (N, cleaved yes); made in house; host or cells: Escherichia coli Rosetta
Description: Homo sapiens GM130 (a.a. 1–48), GM130 (a.a. 1–85), and Importin-β were amplified by PCR and ligated into pGEX-6P-1 (GE Healthcare). H. sapiens full-length Importin-α and Mus musculus Importin-α were amplified by PCR and ligated into modified pGEX-6P-1 (GE Healthcare) that produces proteins with 6-His at the C–terminus. Mouse Importin-α shares ~95% identity with human Importin-α over the full protein sequence, so we used the former for biochemical and structural studies. GM130-S25D (a.a. 1–48), GM130-S25D (a.a. 1–85), GM130-S25D/K14A (a.a. 1–85), and GM130-S25D/K34A (a.a. 1–85) mutants were created by PCR-based mutagenesis and were verified by sequencing. A list of primer sequences used in this study is shown in Supplementary Table 1.
Binding affinities of different GM130 proteins to Importin-α and Importin-β were measured by ITC (MicroCal iTC200). All proteins were dialyzed against ITC buffer (20 mM HEPES pH 7.4, 1 mM DTT) with either 50 or 200 mM NaCl. Protein concentrations were determined spectrophotometrically with respective extinction coefficients. ITC was performed at 25 °C. The respective heat changes were fitted using a one-sites binding model.

[3] = target: T2, Importin-β; experiment: Size exclusion chromatography co-migration with Importin-β; assay type: binding; settings: Superdex 200, 20 mM HEPES pH 7.4, 50 mM NaCl, 3 mM DTT, 1:1
Description: Fig. 4 Ran and a phosphate moiety repress GM130 and Importin-β interaction. a SEC (Superdex 200) elution profiles for the Importin-β•GST-GM130-WT complex (black line), Importin-β (gray line), and GST-GM130-WT (light gray line). The void volume (Vo) is indicated. b–d The peak fractions of the Importin-β•GST-GM130-WT complex (b), Importin-β (c), and GST-GM130-WT (d) were analyzed by SDS–PAGE and stained with Coomassie blue. e, f ITC titration curves (upper) and binding isotherms (lower) of Importin-β with GM130-NLS WT (e) and GM130-NLS phospho-S25 (f). Kd values are indicated. g Competition binding assay. GST-GM130-S25D and Importin-β were incubated with indicated concentrations of GFP-IBB. Samples pulled down by GST beads were analyzed by SDS–PAGE and stained with Coomassie blue. […] GST-bound samples were analyzed by SDS–PAGE and stained with Coomassie blue. i, k Band intensities of Importin-α or Importin-β from the SDS–PAGE gels in h, j were used to determine averages of bound protein. […]
GST-GM130-WT and GST-GM130-S25D were, respectively, incubated with Importin-β or Importin-α FL in a molar ratio of 1:1. […] Peak fractions were analyzed by SDS–PAGE.

[4] = test system: Importin-α associated with GM130; experiment: Immuno-precipitation of Importin-α with GM130 antibody, RO-3306-treated nocodazole-arrested HEK293T cells; assay type: cell-based; settings: RO-3306-treated vs untreated, 10 µM/ml, 2 h; three independent experiments
Description: (§1) To pull down endogenous GM130, HEK293T cells were synchronized via nocodazole treatment and lysed in a buffer containing 50 mM Tris–HCl (pH 7.4), 150 mM NaCl, 1 mM EDTA, 10% glycerol, 1% Triton, 0.15% SDS, protease inhibitor cocktail (Roche), and 1 mM PMSF. Clarified lysates were pre-incubated with GM130 antibody (Abcam ab52649) for 12 h at 4 °C, followed by one hour incubation with IgG sepharose^TM 6 Fast Flow (GE Healthcare). Beads were then washed three times with buffer (20 mM HEPES pH 7.4, 150 mM NaCl, 1.5 mM MgCl2, 10% glycerol, 0.1% Triton). Protein samples were boiled in SDS sample buffer and analyzed by SDS–PAGE, followed by Western blotting analysis.
(§2) To prepare Cdk1 inhibitor treated lysates for GM130 pull-down assays, WT HEK293T cells were synchronized by 30 µM of nocodazole for 13 h, followed by treatment of Cdk1 inhibitor RO-3306 (10 µM/ml) (Sigma, cat#SML0569) for 2 h.
(§3) Sup ple me ntary Figu re 5. Cell-base d e xam ination of the K34A mutation of G M130. a, Representative fluorescent images of w ild-type and two K34A mutant cell lines at metaphase.
(§4) Sca le b a r : 1 0 µm. b, Images of nocodaz o le-ar r e st ed H EK 2 9 3 T ce ll s without (left) and w ith (right) RO-3306 treatment acquired by bright-field illum ination. Sc ale ba r: […]

[5] = test system: p115 associated with GM130; experiment: Immuno-precipitation of p115 with GM130 antibody, RO-3306-treated nocodazole-arrested HEK293T cells; assay type: cell-based; settings: RO-3306-treated vs untreated, 10 µM/ml, 2 h; three independent experiments
Description: as §1, §2, §3, §4

[6] = test system: Cdk1; settings: 1-h RO-3306 treatment; ref [23]; cited from earlier work

T2 sequence (Q14974 whole entry): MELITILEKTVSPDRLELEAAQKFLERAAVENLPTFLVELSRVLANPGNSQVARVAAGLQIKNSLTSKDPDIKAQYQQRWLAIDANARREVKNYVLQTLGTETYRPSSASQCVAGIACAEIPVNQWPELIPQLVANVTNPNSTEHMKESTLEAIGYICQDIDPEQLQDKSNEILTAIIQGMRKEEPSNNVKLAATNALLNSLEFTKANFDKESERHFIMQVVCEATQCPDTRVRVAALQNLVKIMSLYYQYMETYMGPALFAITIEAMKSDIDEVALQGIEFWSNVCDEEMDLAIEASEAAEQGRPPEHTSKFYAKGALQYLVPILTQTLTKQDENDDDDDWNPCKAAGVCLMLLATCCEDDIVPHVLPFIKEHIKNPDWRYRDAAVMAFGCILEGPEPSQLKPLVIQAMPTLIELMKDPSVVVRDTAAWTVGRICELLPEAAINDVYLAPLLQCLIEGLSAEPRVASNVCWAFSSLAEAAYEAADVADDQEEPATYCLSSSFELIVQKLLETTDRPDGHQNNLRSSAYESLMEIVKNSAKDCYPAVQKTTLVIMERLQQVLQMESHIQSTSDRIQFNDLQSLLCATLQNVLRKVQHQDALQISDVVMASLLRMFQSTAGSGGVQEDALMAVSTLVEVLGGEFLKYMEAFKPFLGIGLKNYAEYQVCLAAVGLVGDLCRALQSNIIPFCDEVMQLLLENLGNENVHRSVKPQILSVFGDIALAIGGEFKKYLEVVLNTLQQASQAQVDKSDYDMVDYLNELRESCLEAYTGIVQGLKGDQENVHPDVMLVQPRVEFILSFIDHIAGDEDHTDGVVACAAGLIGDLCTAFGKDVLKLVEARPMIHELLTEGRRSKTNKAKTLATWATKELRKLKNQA

binding affinity for Importin-α(ΔIBB) vs wild type [1]	ITC profile (exothermic / endothermic) [2]	binding constant relative to wild-type GM130 peptide ([2]; relative to wild-type GM130 peptide)	co-migration with Importin-β by SEC [3]	Compound	Importin-α pulldown by GM130 [4]	p115 pulldown by GM130 [5]	block of Cdk1 activity [6]	morphological transition [6]
better binding affinities	endothermic curve	at least three orders of magnitude lower	–	CC[C@H](C)[C@H](NC(=O)[C@H](CCCCN)NC(=O)[C@H](CCCCN)NC(=O)[C@H](CCCCN)NC(=O)[C@H](CCCCN)NC(=O)[C@H](CCCCN)NC(=O)[C@H](C)NC(=O)CNC(=O)[C@@H](NC(=O)[C@@H]1CCCN1C(=O)[C@@H](NC(=O)CNC(=O)[C@@H]1CCCN1C(=O)[C@H](COP(=O)(O)O)NC(=O)[C@H](CC(N)=O)NC(=O)[C@H](CCCNC(=N)N)NC(=O)[C@H](CCC(N)=O)NC(=O)[C@H](CCC(N)=O)NC(=O)[C@H](Cc1ccc(O)cc1)NC(=O)[C@H](CCC(=O)O)NC(=O)[C@H](CCCNC(=N)N)NC(=O)[C@H](CC(C)C)NC(=O)[C@H](CCCCN)NC(=O)[C@H](CCCCN)NC(=O)[C@H](CCCCN)NC(=O)[C@H](C)N)C(C)C)[C@@H](C)O)C(=O)N[C@@H](CCCCN)C(=O)N[C@@H](CC(N)=O)C(=O)O [GM130-NLS phospho-S25] (H-AKKKLREYQQRN[pS]PGVPTGAKKKKKIKN-OH; N-terminus and C-terminus assumed)	–	–	–	–
–	exothermic profile	–	co-migration	AKKKLREYQQRNSPGVPTGAKKKKKIK [GM130-NLS WT]	–	–	–	–
–	–	–	–	O=C1NC(=NCc2cccs2)S/C1=C\c1ccc2ncccc2c1 [RO-3306]	reduced	enhanced	sufficient to block Cdk1 activity	morphological transition from rounded mitotic cells to a flat interphase shape

— PMC6754406, “Ran pathway-independent regulation of mitotic Golgi disassembly by Importin-α” (Nature Communications, 2019)
